Drawing on patent publication US10669269B2, “Substituted N-(1H-indazol-4-yl)imidazo[1,2-a]pyridine-3-carboxamide compounds as type III receptor tyrosine kinase inhibitors” (ARRAY BIOPHARMA INC., priority 2010, dated 2020), this text covers IC50 for 18 molecules.

The IC50 is the midpoint of a concentration-inhibition curve.

Counter-ions that a name gives are not always drawn. Some results are limits rather than exact numbers.

Experiment [1] addresses T1, c-KIT (Homo sapiens, UniProt P10721).
T1 construct: M-07e cells (human acute megakaryoblastic leukemia cell line) were serum-starved for 4 hours; endogenous in cells; host or cells: M-07e cells (human acute megakaryoblastic leukemia cell line)
Briefly: c-KIT Cell-Based Assay (Example D). Particulars: averaged IC50; phospho-c-KIT in M-07e cells stimulated with 150 ng/ml recombinant human SCF; read-out: cKIT Cell ELISA IC50. Summed up:
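M-07e cells serum-starved 4 h, treated 1 h with compound (9-point, 3-fold dilutions, top dose typically 5,000 nM) at 37° C, then stimulated 4 min with 150 ng/ml SCF. Phospho-c-KIT in lysates quantified by ELISA against a standard curve; IC50 from 4-parameter logistic fit as 50% of control.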

Experiment [2] deals with T2, PDGFR beta (Homo sapiens, UniProt P09619).
T2 construct: endogenous in cells; host or cells: HS27 human fibroblast cell line
T2 sequence (P09619 33-1106): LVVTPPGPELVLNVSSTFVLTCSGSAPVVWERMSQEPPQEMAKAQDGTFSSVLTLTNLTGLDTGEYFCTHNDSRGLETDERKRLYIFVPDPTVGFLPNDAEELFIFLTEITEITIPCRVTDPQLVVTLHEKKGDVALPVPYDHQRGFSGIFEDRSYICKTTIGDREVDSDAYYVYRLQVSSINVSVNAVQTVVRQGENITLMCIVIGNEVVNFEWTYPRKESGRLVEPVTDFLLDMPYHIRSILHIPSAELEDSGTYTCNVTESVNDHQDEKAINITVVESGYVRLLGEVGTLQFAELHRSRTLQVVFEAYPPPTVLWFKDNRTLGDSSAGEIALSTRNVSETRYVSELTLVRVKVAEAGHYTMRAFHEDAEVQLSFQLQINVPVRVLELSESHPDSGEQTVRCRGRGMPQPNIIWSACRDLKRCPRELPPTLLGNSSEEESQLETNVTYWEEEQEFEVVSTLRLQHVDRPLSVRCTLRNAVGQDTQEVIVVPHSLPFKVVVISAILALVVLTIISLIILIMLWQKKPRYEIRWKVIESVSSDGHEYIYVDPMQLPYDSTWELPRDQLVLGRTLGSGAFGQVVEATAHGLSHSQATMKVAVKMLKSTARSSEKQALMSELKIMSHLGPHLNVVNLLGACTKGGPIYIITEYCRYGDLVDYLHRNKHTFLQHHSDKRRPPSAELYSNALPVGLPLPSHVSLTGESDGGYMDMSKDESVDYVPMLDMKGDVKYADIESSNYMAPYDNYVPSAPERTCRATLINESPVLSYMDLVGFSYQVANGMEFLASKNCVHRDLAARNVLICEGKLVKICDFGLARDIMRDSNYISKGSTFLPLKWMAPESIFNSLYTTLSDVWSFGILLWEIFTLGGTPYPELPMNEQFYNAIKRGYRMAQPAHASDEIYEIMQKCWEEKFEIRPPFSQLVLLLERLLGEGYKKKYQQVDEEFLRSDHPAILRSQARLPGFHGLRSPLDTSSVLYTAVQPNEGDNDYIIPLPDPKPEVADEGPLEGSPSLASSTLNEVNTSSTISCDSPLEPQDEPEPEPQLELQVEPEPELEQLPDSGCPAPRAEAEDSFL
Briefly: Phospho PDGFR Cell Assay, sandwich ELISA (Example A). Particulars: averaged IC50, PDGFR beta phosphorylation in HS27 human fibroblast cell line, PDGF-BB stimulation 5 minutes. In kind it is cell-based. The method, then:
Compounds were screened for inhibition of PDGFR beta phosphorylation in the HS27 human fibroblast cell line. Cells were seeded into a 96 well tissue culture plate, then incubated overnight in a 37° C., 5% CO2 incubator. The following day, cells were treated for one hour with test compound dilutions. After stimulation with PDGF-BB ligand for 5 minutes, cells were lysed and added to a sandwich ELISA plate from R&D Systems to detect levels of phospho PDGFR beta. A standard 4-parameter logistic model was fit to the inhibitor dose response curves, with the IC50 being defined as the concentration of inhibitor giving 50 percent of control (POC).
In general terms: An ELISA detects its analyte on a solid surface through an enzyme-linked reagent.

In experiment [3] the target is T3, cFMS (Homo sapiens, UniProt P07333).
T3 construct: THP-1 cells (human acute monocytic leukemia cell line) were serum-starved for 4 hours; endogenous in cells; host or cells: THP-1 cells (human acute monocytic leukemia cell line)
T3 sequence (P07333 20-972): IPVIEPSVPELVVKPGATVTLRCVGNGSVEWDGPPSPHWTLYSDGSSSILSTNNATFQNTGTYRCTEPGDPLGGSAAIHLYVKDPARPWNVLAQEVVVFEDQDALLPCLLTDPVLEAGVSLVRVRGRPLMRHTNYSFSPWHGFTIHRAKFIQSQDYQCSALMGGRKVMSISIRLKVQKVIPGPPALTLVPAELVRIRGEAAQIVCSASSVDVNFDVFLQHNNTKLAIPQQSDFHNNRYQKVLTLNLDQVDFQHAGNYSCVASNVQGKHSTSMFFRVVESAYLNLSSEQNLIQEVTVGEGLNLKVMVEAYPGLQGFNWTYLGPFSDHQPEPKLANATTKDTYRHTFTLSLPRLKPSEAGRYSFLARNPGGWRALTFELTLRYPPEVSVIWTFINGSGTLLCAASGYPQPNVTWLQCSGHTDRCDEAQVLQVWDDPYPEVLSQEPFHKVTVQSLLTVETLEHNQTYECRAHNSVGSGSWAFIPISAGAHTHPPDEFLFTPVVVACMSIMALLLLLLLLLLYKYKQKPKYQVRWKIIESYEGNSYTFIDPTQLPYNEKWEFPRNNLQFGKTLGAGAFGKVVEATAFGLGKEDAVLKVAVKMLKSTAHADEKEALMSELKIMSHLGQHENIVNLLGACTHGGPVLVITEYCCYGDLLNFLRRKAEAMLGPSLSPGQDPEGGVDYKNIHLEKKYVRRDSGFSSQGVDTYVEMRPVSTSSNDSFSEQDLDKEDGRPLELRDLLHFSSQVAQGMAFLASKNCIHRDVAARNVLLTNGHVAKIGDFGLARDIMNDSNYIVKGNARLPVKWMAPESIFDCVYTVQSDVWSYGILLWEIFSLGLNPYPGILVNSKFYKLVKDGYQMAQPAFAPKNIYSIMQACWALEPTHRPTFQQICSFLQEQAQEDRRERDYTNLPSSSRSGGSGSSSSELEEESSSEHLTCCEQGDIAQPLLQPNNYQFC
The experiment is described as follows: cFMS Cell-Based Assay (Example C). As to conditions: averaged IC50; phospho-cFMS in THP-1 cells stimulated with 250 ng/mL recombinant human MCSF; read-out: cFMS Cell ELISA IC50. Summed up:
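THP-1 cells serum-starved 4 h, then treated 1 h with compound (9-point, 3-fold series, top dose typically 5,000 nM) at 37 °C, then stimulated 1 min with 250 ng/mL recombinant human MCSF. Phospho-cFMS in lysates quantified by capture ELISA against a purified phospho-protein standard curve. IC50 at 50 percent of control, 4-parameter logistic fit.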

In experiment [4] the target is T2, PDGFR beta. The experiment is described as follows: Phospho PDGFR LICOR Cell Assay (Example B). The format is cell-based. Particulars: averaged IC50; PDGFR beta phosphorylation in HS27 human fibroblast cell line, PDGF-BB stimulation 10 minutes, normalized to total ERK. Summed up: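 HS27 human fibroblasts pretreated 1 h with compound, then stimulated 10 min with PDGF-BB. Fixed, permeabilized cells immunostained for phospho-PDGFRβ and total ERK and read by two-colour infrared fluorescence, with phospho signal normalized to ERK. IC50 = 50% of control from 4-parameter logistic fit.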

T1 sequence (P10721 26-976): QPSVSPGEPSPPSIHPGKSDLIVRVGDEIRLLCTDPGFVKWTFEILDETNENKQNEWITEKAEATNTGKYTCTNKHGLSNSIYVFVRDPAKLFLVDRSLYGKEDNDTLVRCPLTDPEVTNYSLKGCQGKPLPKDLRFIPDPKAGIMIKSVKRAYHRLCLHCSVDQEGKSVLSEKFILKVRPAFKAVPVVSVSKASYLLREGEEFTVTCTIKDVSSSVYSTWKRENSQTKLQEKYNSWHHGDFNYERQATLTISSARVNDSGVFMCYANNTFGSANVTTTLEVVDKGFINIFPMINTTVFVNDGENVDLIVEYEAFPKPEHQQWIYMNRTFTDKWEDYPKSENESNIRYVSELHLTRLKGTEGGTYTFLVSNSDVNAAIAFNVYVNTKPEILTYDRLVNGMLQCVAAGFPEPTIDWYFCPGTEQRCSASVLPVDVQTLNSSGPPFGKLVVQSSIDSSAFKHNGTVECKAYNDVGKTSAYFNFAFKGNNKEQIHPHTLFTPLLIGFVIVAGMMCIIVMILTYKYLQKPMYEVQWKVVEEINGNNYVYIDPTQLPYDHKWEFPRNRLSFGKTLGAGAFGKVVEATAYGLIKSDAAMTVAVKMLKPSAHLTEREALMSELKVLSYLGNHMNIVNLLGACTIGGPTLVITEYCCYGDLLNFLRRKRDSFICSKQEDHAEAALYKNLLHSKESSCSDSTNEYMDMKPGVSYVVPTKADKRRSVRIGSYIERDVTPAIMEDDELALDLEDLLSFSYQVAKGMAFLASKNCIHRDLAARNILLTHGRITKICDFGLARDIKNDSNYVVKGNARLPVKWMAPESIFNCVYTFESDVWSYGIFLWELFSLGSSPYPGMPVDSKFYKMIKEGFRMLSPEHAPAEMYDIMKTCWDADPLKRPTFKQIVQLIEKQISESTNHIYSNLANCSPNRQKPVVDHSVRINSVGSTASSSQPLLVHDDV

Take `Cc1cccc(Cn2nc(C)c3c(NC(=O)c4cnc5cc(-c6cn[nH]c6)ccn45)cccc32)n1` [Example 70, N-(3-methyl-1-((6-methylpyridin-2-yl)methyl)-1H-indazol-4-yl)-7-(1H-pyrazol-4-yl)imidazo[1,2-a]pyridine-3-carboxamide]: the IC50 came to 146 nM in experiment [1], 99.2 nM in experiment [2] and 5.1 nM in experiment [3].
On the same counts, the results for `Cc1nn(Cc2cccc(C3CCC3)n2)c2cccc(NC(=O)c3cnc4cc(OCCN5CCN(C)[C@@H](C)C5)ccn34)c12` [Example 32, (S)—N-(1-((6-cyclobutylpyridin-2-yl)methyl)-3-methyl-1H-indazol-4-yl)-7-(2-(3,4-dimethylpiperazin-1-yl)ethoxy)imidazo[1,2-a]pyridine-3-carboxamide] are 42.4 nM, 66.5 nM and 24.2 nM.
On the same counts, the results for `O=C(Nc1cccc2c1cnn2Cc1ccccc1)c1cnc2cc(Br)ccn12` [Example 161, N-(1-benzyl-1H-indazol-4-yl)-7-bromoimidazo[1,2-a]pyridine-3-carboxamide] are 43.1 nM, 236 nM and 58.9 nM.
On the same counts, the results for `COCCN1CCN(CCOc2ccn3c(C(=O)Nc4cccc5c4c(C)nn5Cc4cccc(C5CC5)n4)cnc3c2)CC1` [Example 20, N-(1-((6-cyclopropylpyridin-2-yl)methyl)-3-methyl-1H-indazol-4-yl)-7-(2-(4-(2-methoxyethyl)piperazin-1-yl)ethoxy)imidazo[1,2-a]pyridine-3-carboxamide] are 76.1 nM, 55.9 nM and 10.8 nM.
On to `CC(=O)c1ccn2c(C(=O)Nc3cccc4c3c(C)nn4Cc3cccc(C)n3)cnc2c1` [Example 79, 7-acetyl-N-(3-methyl-1-((6-methylpyridin-2-yl)methyl)-1H-indazol-4-yl)imidazo[1,2-a]pyridine-3-carboxamide], for which the IC50 was 4320 nM in experiment [1], at least 1000 nM in experiment [2] and 56.9 nM in experiment [3].
On the same counts, the results for `Cc1cccc(Cn2nc(C)c3c(NC(=O)c4cnc5cc(N6CCCC6)ccn45)cccc32)n1` [Example 54, N-(3-methyl-1-((6-methylpyridin-2-yl)methyl)-1H-indazol-4-yl)-7-(pyrrolidin-1-yl)imidazo[1,2-a]pyridine-3-carboxamide dihydrochloride] are 387 nM, 291 nM and 8.8 nM.
For the molecule `CC(=O)c1ccn2c(C(=O)Nc3cccc4c3cnn4Cc3ccccc3)cnc2c1` [Example 146, 7-acetyl-N-(1-benzyl-1H-indazol-4-yl)imidazo[1,2-a]pyridine-3-carboxamide], the values for the IC50 in experiment [1], in experiment [3] and in experiment [4] were 36.9 nM, 58.2 nM and 109 nM, respectively.
Turning to `COc1ccn2c(C(=O)Nc3cccc4c3cnn4Cc3ccccc3)cnc2c1` [Example 125, N-(1-benzyl-1H-indazol-4-yl)-7-methoxyimidazo[1,2-a]pyridine-3-carboxamide], the half-maximal inhibitory concentration (IC50) was 19.8 nM in experiment [1], 12.5 nM in experiment [3] and 2.1 nM in experiment [4].
On the same counts, the results for `COCCOc1ccn2c(C(=O)Nc3cccc4c3cnn4Cc3cccc(OCc4ccccc4)c3)cnc2c1` [Example 119, N-(1-(3-(benzyloxy)benzyl)-1H-indazol-4-yl)-7-(2-methoxyethoxy)imidazo[1,2-a]pyridine-3-carboxamide] are 23 nM, 26.3 nM and 17.4 nM.
On the same counts, the results for `CC(O)c1ccn2c(C(=O)Nc3cccc4c3cnn4Cc3ccccc3)cnc2c1` (stereo not drawn) [Example 147, N-(1-benzyl-1H-indazol-4-yl)-7-(1-hydroxyethyl)imidazo[1,2-a]pyridine-3-carboxamide] are 93.1 nM, 72.6 nM and 399 nM.
For `COCCOc1ccn2c(C(=O)Nc3cccc4c3cnn4CC3CCCN(C(=O)OC(C)(C)C)C3)cnc2c1` (stereo not drawn) [Example 116, tert-butyl 3-((4-(7-(2-methoxyethoxy)imidazo[1,2-a]pyridine-3-carboxamido)-1H-indazol-1-yl)methyl)piperidine-1-carboxylate], the IC50 in experiment [1] is 192 nM; in experiment [3], 185 nM; in experiment [4], 54 nM.
For the molecule `CC(c1ccn2c(C(=O)Nc3cccc4c3cnn4Cc3ccccc3)cnc2c1)N1CCOCC1` (stereo not drawn) [Example 148, N-(1-benzyl-1H-indazol-4-yl)-7-(1-morpholinoethyl)imidazo[1,2-a]pyridine-3-carboxamide], the IC50 in experiment [1] came out at 189 nM; in experiment [3], 93.1 nM; in experiment [4], 994 nM.
On the same counts, the results for `CC(C)c1cccc(Cn2ncc3c(NC(=O)c4cnc5cc(OCCN6CCN(C)CC6)ccn45)cccc32)n1` [Example 138, N-(1-((6-isopropylpyridin-2-yl)methyl)-1H-indazol-4-yl)-7-(2-(4-methylpiperazin-1-yl)ethoxy)imidazo[1,2-a]pyridine-3-carboxamide] are 3.9 nM, 8.5 nM and 1.9 nM.
Turning to `CN1CCN(CCOc2ccn3c(C(=O)Nc4cccc5c4cnn5Cc4ccccc4)cnc3c2)CC1` [Example 153, N-(1-benzyl-1H-indazol-4-yl)-7-(2-(4-methylpiperazin-1-yl)ethoxy)imidazo[1,2-a]pyridine-3-carboxamide], the IC50 is 9.5 nM in experiment [1], 14.8 nM in experiment [3] and 5 nM in experiment [4].
On the same counts, the results for `COCCOc1ccn2c(C(=O)Nc3cccc4c3cnn4CC3CCCCC3)cnc2c1` [Example 115, N-(1-(cyclohexylmethyl)-1H-indazol-4-yl)-7-(2-methoxyethoxy)imidazo[1,2-a]pyridine-3-carboxamide] are 13.4 nM, 24.1 nM and 6.8 nM.
On the same counts, the results for `Cc1nn(Cc2cc(C)n(C(C)C)n2)c2cccc(NC(=O)c3cnc4cc(OCCN5CC6(CN(C)C6)C5)ccn34)c12` [Example 8, N-(1-((1-Isopropyl-5-methyl-1H-pyrazol-3-yl)methyl)-3-methyl-1H-indazol-4-yl)-7-(2-(6-methyl-2,6-diazaspiro[3.3]heptan-2-yl)ethoxy)imidazo[1,2-a]pyridine-3-carboxamide] are 122 nM, 33.6 nM and 32.6 nM.
On the same counts, the results for `Cc1cccc(Cn2nc(C)c3c(NC(=O)c4cnc5cc(OCC(O)CO)ccn45)cccc32)n1` (stereo not drawn) [Example 58, 7-(2,3-dihydroxypropoxy)-N-(3-methyl-1-((6-methylpyridin-2-yl)methyl)-1H-indazol-4-yl)imidazo[1,2-a]pyridine-3-carboxamide] are 6870 nM, 21.9 nM and 915 nM.
Take `COCCOc1ccn2c(C(=O)Nc3cccc4c3cnn4Cc3cccnc3C)cnc2c1` [Example 118, 7-(2-methoxyethoxy)-N-(1-((2-methylpyridin-3-yl)methyl)-1H-indazol-4-yl)imidazo[1,2-a]pyridine-3-carboxamide]: the IC50 in experiment [1] was found to be 581 nM; in experiment [3], 310 nM; in experiment [4] it was 178 nM.
